The assay can be described thus: Defibrillator activity of efsevin enantiomers.

On to `CCOC(=O)C1=CCN(S(=O)(=O)c2ccc(C)cc2)[C@@H]1c1ccccc1` [(R)-Efsevin], for which the “defibrillator activity of efsevin: active enantiomer” value is recorded as “Active Antipode”.

For the origin of these results see patent publication US12378193B2, “Anti-arrhythmicity agents” (The Regents of the University of California, priority 2014, dated 2025).
